US9802897B2, “Amidopyridinol derivative or pharmaceutically acceptable salt thereof and pharmaceutical composition comprising same as active component” (Research Cooperation Foundation of Yeungnam University, priority 2013, dated 2017)

Columns and labels:
[1] = system: cathepsin S; test: RT-PCR of cathepsin S gene expression in MDA-MB-231 cells; assay type: cell-based; settings: Homo sapiens, MDA-MB-231, 24 h, screening, 1 μM of each compound; MDA-MB-231, RT-PCR; read-out: Inhibition rate of expression of cathepsin S (%)
Description: Each compound of the present invention was treated with breast cancer cells (1×10^5 cell/cm^2), e.g., MDA-MB-231, and then, cultured at a temperature of 37° C. for 24 hours in a cell incubator. Afterwards, a trizole reagent was used to extract the entire mRNA therefrom. 24 hours later, the culture medium was removed therefrom, 1 mL of the triazole reagent was added to each well, and then, the cell elusion was transferred to a 1.5 mL tube. After 200 μl of chloroform was added to each sample, the samples were subjected to centrifugation at a temperature of 4° C., at 12,000 g, for 15 minutes. 500 μl of the supernatant obtained therefrom was transferred to a new tube. After 500 μl of isopropylalcohol was added to each sample, the samples were subjected to centrifugation at a temperature of 4° C., at 12,000 g, for 15 minutes. The supernatant obtained therefrom was removed from each sample, and then, the samples were washed with 75% ethanol to clean mRNA while the precipitants were dried. Then, mRNA extracted therefrom was dissolved in RNase-free water, followed by being heated at a temperature of 55° C. for 10 minutes.
After the RNA quantification, the GoScript™ reverse transcription system (Promega Corporation, Madison, Wis., USA) was used to synthesize cDNA. Here, PCR was performed by using TaKaRa Taq™ (Takara bio Inc., Shiga, Japan), wherein a primer set of cathepsin S consists of a forward primer having SEQ ID NO: 1 (forward sequence: 5′-GCAGTGGCACAGTTGCATAA-3′) and a reverse primer having SEQ ID NO: 2 (reverse sequence: 5′-AGCACCACAAGAACCCATGT-3′). After the PCR product was subjected to agarose gel electrophoresis, the PCR product was stained with ethidium bromide (0.5 μg/ml), thereby obtaining images thereof by using the gel imaging system (UVP, Cambridge, UK). Here, the PCR product was quantified based on glyceraldehyde 3-phosphate dehydrogenase (GAPDH). A GAPDH primer used herein consists of a forward primer having SEQ ID NO: 3 (forward sequence: 5′-GGTGAAGGTCGGAGTCAACG-3′) and a reverse primer having SEQ ID NO: 4 (reverse sequence: 5′-CAAAGTTGTCATGGATGACC-3′).
Furthermore, to screen other amidopyridinol derivatives that inhibit metastasis of breast cancer cells, inhibitory effects on expression of cathepsin S genes were reviewed by treating 1 μM of each compound, in the same manner as in Experimental Example 9.

[2] = system: ARPE-19 cell line; test: Scavenging of ROS induced by risk factors of macular degeneration (4-HNE, Ang II) in ARPE-19 cells; assay type: cell-based; settings: vs control group
Description: To measure scavenging effects of ROS in HUVEC cells that were induced by VEGF, 2′,7′-dichlorofluorescein diacetate (DCF-DA) was used. […] After […] at a concentration of 1×10^5, each of which well was coated with 0.2% gelatin, DCF-DA was cultured for 24 hours. Meanwhile, Compounds 8a and 8b were pre-treated for 3 hours, induced by VEGF for 15 minutes, and then, washed with PBS (pH 7.4) three times. Then, 10 μM of DCF-DA was placed in a EBM-2 medium to be treated for 30 minutes in a dark room. Then, DCF-DA was washed again with PBS three times, and then, subjected to measure intensity of fluorescence in the cells by using a fluorescence microscope.
According to a similar manner as in Experimental Example 2, a risk factor of macular degeneration, e.g., 4-hydroxynonenal (4-HNE) or angiotensin II (Ang II), were treated with an adult retinal pigment epithelium-19 (ARPE-19) cell line, so as to observe scavenging effects of ROS in Compounds 8a and 8b.

[3] = ARPE-19 treated with 4-hydroxynonenal (4-HNE)
[4] = ARPE-19 treated with angiotensin II (Ang II)

Compound	inhibition at 1 µM [1]	intensity of fluorescence (ROS) [2, 3]	intensity of fluorescence (ROS) [2, 4]
CC(=O)Nc1nc(C)c(O)c(C)c1C [Compound 8a, N-(5-hydroxy-3,4,6-trimethylpyridine-2-yl)acetamide]	≥ 50%	significant decrease in the intensity of fluorescence	significant decrease in the intensity of fluorescence
CCCCCCCCCCCC(=O)Nc1nc(C)c(O)c(C)c1C [Compound 8b, N-(5-hydroxy-3,4,6-trimethylpyridine-2-yl)dodecanamide]	≥ 50%	significant decrease in the intensity of fluorescence	significant decrease in the intensity of fluorescence
